# In patent US20130084257A1, “TRANSDERMAL ABSORPTION PROMOTER, AND EXTERNAL SKIN FORMULATION THEREOF” (TAKASAGO INTERNATIONAL CORPORATION, priority 2010, published 2013):
# Where two headings read alike, the source gives them in different places.
# Assays:
# [1] = hairless, mouse, 2 mass %, pH 7.4
# Method: (§1) A skin specimen extirpated from a hairless mouse was placed in a vertical diffusion cell, with the dermal horny layer side being in the donor side and the dermal basement membrane side being in the receiver side. 16 mL of a phosphate-buffered physiological saline solution (PBS solution) (pH 7.4) was added to the receiver side. The cell was heated in a water bath at 37° C. 30 minutes after starting heating, 1.0 g of a hydrogel, having been heated to 37° C., was applied to the donor side using a needleless syringe. The receiver solution was collected in 1 mL portions at specific time intervals. To the receiver side, the PBS solution was added in 1 mL portions to make up for the collected portions.
# (§2) The receiver solution thus collected was subjected to high performance liquid chromatography (HPLC) and the amount of permeated paroxetine was calculated.
# [2] = Skin permeability test: effect of promoting transdermal absorption of paroxetine (vertical diffusion cell); assay type: in vitro ADME; details: hydrogel with 1 mass % paroxetine and 2 mass % test sample; hairless mouse skin; receiver PBS pH 7.4; 37° C.; n = 5
# From the text: As a control, purified water was used as a substitute for the test samples.
# Device: Elite LaChrom System (manufactured by Hitachi Ltd.)
# Column: YMS-Pack ODS-A 4.6 mm×150 mm (manufactured by YMC Co., Ltd.)
# Eluent: phosphate buffer (pH 3.5)/acetonitrile=35/65 (V/V)
# Measurement wavelength: 235 nm
# [3] = Skin permeability test: effect of promoting transdermal absorption of antipyrine (vertical diffusion cell); details: hydrogel with 2 mass % antipyrine and 2 mass % test sample; hairless mouse skin; receiver PBS pH 7.4; 37° C.; n = 5
# Method: as §1, §2
Flux of antipyrine (transdermal absorption amount per unit time and unit area) [1],Lagtime of antipyrine (transdermal absorption speed) [1],SMILES,Flux of paroxetine (transdermal absorption amount per unit time and unit area) [2],Lagtime of paroxetine (transdermal absorption speed) [2],Flux of antipyrine (transdermal absorption amount per unit time and unit area) [3],Lagtime of antipyrine (transdermal absorption speed) [3]
224.59 ± 19.56 μg/cm^2/h,1.36 ± 0.28 h,"CC1CCC(C(C)C)C(OCCO)C1 (centres unmarked) [CA5, 2-(menthoxy)ethanol]",–,–,–,–
–,–,"CC1CCC(C(C)C)C(O)C1 (centres unmarked) [Sample 1-Menthol, 1-menthol]",185 ± 31.1 μg/cm^2/h,3.84 ± 1.60 h,300.52 ± 34.42 μg/cm^2/h,0.53 ± 0.02 h
150.71 ± 5.46 μg/cm^2/h,3.20 ± 0.24 h,"CC1CCC(C(C)C)C(OCC(C)(O)CO)C1 (centres unmarked) [CA1, 2-methyl-3-(menthoxy)propane-1,2-diol]",–,–,–,–
